Results as given in ChEMBL document CHEMBL5512621, “Overview of the development of protein arginine methyltransferase modulators: Achievements and future directions” (Eur J Med Chem, 2024).

What was measured:
[1] = tested on: PC-3; assay: Inhibition of cell growth in human PC-3 cells; format: functional, cell-based
[2] = tested on: JeKo-1; assay: Inhibition of cell growth in human JeKo-1 cells; format: functional, cell-based
[3] = target: T1, Protein arginine N-methyltransferase 7 (Homo sapiens, UniProt Q9NVM4); assay: Inhibition of PRMT7 (unknown origin)
T1 sequence (Q9NVM4 whole entry): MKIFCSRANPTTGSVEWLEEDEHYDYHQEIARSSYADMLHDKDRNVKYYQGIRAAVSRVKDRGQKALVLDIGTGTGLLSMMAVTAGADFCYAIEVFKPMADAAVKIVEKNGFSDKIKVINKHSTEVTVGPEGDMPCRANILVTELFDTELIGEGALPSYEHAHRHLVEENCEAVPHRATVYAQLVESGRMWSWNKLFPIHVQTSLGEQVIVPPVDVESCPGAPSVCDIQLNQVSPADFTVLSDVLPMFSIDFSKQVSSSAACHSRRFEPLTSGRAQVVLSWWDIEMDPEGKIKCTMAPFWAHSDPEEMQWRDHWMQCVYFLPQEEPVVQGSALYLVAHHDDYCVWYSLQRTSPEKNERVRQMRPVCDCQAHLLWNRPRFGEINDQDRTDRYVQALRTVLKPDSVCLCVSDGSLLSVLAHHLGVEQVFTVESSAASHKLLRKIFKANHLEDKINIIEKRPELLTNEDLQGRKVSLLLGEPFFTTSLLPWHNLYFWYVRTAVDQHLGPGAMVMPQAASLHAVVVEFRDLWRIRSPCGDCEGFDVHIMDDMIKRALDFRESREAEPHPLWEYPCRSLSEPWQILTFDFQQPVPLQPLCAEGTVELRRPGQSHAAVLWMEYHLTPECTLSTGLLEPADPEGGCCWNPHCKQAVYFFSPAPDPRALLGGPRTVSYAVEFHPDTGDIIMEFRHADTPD

[4] = tested on: ES-2; assay: Inhibition of cell growth in human ES2 cells; format: functional, cell-based
[5] = target: T2, Protein arginine N-methyltransferase 7 (Mus musculus, UniProt Q922X9); assay: Inhibition of PRMT7 in mouse C2C12 cells assessed as reduction in HSP70 methylation; format: cell-based
T2 sequence (Q922X9 whole entry): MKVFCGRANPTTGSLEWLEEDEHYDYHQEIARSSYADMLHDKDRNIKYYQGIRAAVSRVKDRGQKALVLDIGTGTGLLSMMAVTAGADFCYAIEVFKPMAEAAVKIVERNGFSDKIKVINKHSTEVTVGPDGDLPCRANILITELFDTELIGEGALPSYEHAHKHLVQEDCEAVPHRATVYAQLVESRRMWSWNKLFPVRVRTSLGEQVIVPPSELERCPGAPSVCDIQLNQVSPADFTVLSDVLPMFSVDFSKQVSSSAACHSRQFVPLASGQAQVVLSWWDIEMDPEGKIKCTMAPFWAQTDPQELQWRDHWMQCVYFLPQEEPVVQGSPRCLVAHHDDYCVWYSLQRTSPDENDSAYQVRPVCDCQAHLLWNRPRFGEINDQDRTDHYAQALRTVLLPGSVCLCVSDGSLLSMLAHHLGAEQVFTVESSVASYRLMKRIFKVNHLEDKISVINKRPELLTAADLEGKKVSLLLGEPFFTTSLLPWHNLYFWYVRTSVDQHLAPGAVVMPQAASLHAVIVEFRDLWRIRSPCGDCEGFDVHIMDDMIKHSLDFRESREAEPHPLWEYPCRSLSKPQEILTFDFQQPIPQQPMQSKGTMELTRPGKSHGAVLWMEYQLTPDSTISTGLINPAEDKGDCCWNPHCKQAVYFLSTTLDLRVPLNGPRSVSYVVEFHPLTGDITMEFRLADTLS

Row | Structure (SMILES) | IC50 [1] | IC50 [2] | IC50 [3] | IC50 [4] | IC50 [5]
1 | COc1cc(-c2ncc(F)c(Nc3ccc4cc(C)cc(N)c4c3)n2)cc(OC)c1OC | < 10 µM | < 10 µM | 2.1 µM | < 10 µM | –
2 | CC1=C(C)C(=O)C(C(C)(C)CC(=O)N(CCCCSC[C@H]2O[C@@H](n3cnc4c(N)ncnc43)[C@H](O)[C@@H]2O)Cc2ccc(-c3ccc(Cl)cc3)cc2)=C(C)C1=O | – | – | – | – | 2.4 µM
